From patent US20260184675A1, “CHIRAL ISOMERIC SULFITE COMPOUND AND APPLICATION THEREOF” (Chengdu Hanova BioSciences Co., Ltd, priority 2024, published 2026)
Several values for one entry are separate records, joined by “and”; a condition that tells them apart may be missing. Equal entries are not always repeated.

Key:
eggs of Aleyrodidae = assay: Effect on hatching of eggs of Aleyrodidae, leaf disc method; type: in vivo; conditions: 10 ppm; for Hatching rate (%), Replicate 1 / Hatching rate (%), Replicate 2 / Hatching rate (%), Replicate 3 / Number of hatched larvae 5 days after insecticide delivery, Replicate 1 / Number of hatched larvae 5 days after insecticide delivery, Replicate 2 / Number of hatched larvae 5 days after insecticide delivery, Replicate 3: Aleyrodidae eggs; for Hatching rate (%), Replicate 1 / Hatching rate (%), Replicate 2 / Hatching rate (%), Replicate 3: 5 days after delivery; for Number of hatched larvae 5 days after insecticide delivery, Replicate 1 / Number of hatched larvae 5 days after insecticide delivery, Replicate 2 / Number of hatched larvae 5 days after insecticide delivery, Replicate 3: leaf disc
Method in brief: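 Inhibition of Aleyrodidae egg hatching was tested with a leaf disc method at 10 ppm. Egg numbers on each disc were counted under a microscope before treatment. Discs bearing eggs were soaked for 10 seconds in clear water or test solution, removed, and kept under moist conditions. Hatching was checked five days after insecticide delivery and hatched larvae were counted.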

[1] = system: eggs of Spodoptera litura; assay: Effect on hatching of eggs of Spodoptera litura, egg piece soaking; type: in vivo; conditions: 500 ppm; for Hatching rate (%), Replicate 1 / Hatching rate (%), Replicate 2 / Hatching rate (%), Replicate 3 / Number of unhatched larvae 4 days after insecticide delivery, Replicate 1 / Number of unhatched larvae 4 days after insecticide delivery, Replicate 2 / Number of unhatched larvae 4 days after insecticide delivery, Replicate 3: Spodoptera litura eggs; for Hatching rate (%), Replicate 1 / Hatching rate (%), Replicate 2 / Hatching rate (%), Replicate 3: 4 days after delivery; for Number of unhatched larvae 4 days after insecticide delivery, Replicate 1 / Number of unhatched larvae 4 days after insecticide delivery, Replicate 2 / Number of unhatched larvae 4 days after insecticide delivery, Replicate 3: soaked 10 minutes
Method in brief: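 Egg pieces of about 60 eggs were soaked 10 min in test agent at 500 ppm, blotted, then held singly at 24±1 °C, 80±10% RH, 12:12 L:D. Hatched and unhatched eggs were counted on day 4 to give hatching rate and control effect; 3 replicates.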

[2] = system: eggs of Harmonia axyridis; assay: Effect on hatching of eggs of Harmonia axyridis, egg card immersion; type: in vivo; conditions: 100 ppm; for Number of hatched larvae 4 days after insecticide delivery, Replicate 1 / Number of hatched larvae 4 days after insecticide delivery, Replicate 2 / Number of hatched larvae 4 days after insecticide delivery, Replicate 3: Harmonia axyridis egg cards, immersed 30 seconds; for Hatching rate (%), Replicate 1 / Hatching rate (%), Replicate 2 / Hatching rate (%), Replicate 3: Harmonia axyridis eggs, 4 days after delivery
Method in brief: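 Egg cards (~20 eggs each) dipped 30 s in 100 ppm insecticide, air dried and kept moist at 27° C; 5 cards per treatment, 3 replicates. Hatching assessed 4 days after treatment against pre-treatment egg counts, and control effect calculated by formula.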

eggs of Thrips = assay: Effect on hatching of eggs of Thrips, leaf disc method; type: in vivo; conditions: 100 ppm; for Hatching rate (%): 5 days after insecticide delivery
Method in brief: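 Thrip egg hatching was tested by the leaf disc method on Vicia faba discs 2.0 cm across, placed over wetted filter paper. Egg numbers on each disc were counted under a microscope before treatment. Discs were then dipped for 10 seconds in clean water or a compound solution at 100 ppm. They were kept moist under normal conditions, and hatching was surveyed five days after insecticide delivery.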

Magnaporthe grisea = type: cell-based; conditions: 100 ppm; for Average antifungal rate (%) / Antifungal rate of Magnaporthe grisea (%), Replicate 1 / Antifungal rate of Magnaporthe grisea (%), Replicate 2 / Antifungal rate of Magnaporthe grisea (%), Replicate 3: 96-well plate; for Average antifungal rate (%): average of 3 replicates
[3] = Replicate 1, listed as 19-(S, S)
[4] = Replicate 2, listed as 19-(S, S)
[5] = Replicate 3, listed as 19-(S, S)
[6] = Replicate 1, listed as 19′-(R, R)
[7] = Replicate 2, listed as 19′-(R, R)

**Q.** Which results are given for `CCC(COc1ccc(Cl)cc1Cl)OS(=O)OCCF` [19-(S,S)]?
**A.** Hatching rate (%), Replicate 1 (eggs of Aleyrodidae; listed as 19-(S, S)): 12.36%; Hatching rate (%), Replicate 2 (eggs of Aleyrodidae; listed as 19-(S, S)): 12.03%; Hatching rate (%), Replicate 3 (eggs of Aleyrodidae; listed as 19-(S, S)): 12.28%; Number of hatched larvae 5 days after insecticide delivery, Replicate 1 (eggs of Aleyrodidae; listed as 19-(S, S)): 11; Number of hatched larvae 5 days after insecticide delivery, Replicate 2 (eggs of Aleyrodidae; listed as 19-(S, S)): 16; Number of hatched larvae 5 days after insecticide delivery, Replicate 3 (eggs of Aleyrodidae; listed as 19-(S, S)): 14; Hatching rate (%), Replicate 1 ([1]; listed as 19-(S, S)): 50.00%; Hatching rate (%), Replicate 2 ([1]; listed as 19-(S, S)): 51.72%; Hatching rate (%), Replicate 3 ([1]; listed as 19-(S, S)): 50.91%; Number of unhatched larvae 4 days after insecticide delivery, Replicate 1 ([1]; listed as 19-(S, S)): 30; Number of unhatched larvae 4 days after insecticide delivery, Replicate 2 ([1]; listed as 19-(S, S)): 28; Number of unhatched larvae 4 days after insecticide delivery, Replicate 3 ([1]; listed as 19-(S, S)): 27; Number of hatched larvae 4 days after insecticide delivery, Replicate 1 ([2]; listed as 19-(S, S)): 13; Number of hatched larvae 4 days after insecticide delivery, Replicate 2 ([2]; listed as 19-(S, S)): 15; Number of hatched larvae 4 days after insecticide delivery, Replicate 3 ([2]; listed as 19-(S, S)): 16; Hatching rate (%), Replicate 1 ([2]; listed as 19-(S, S)): 13.68%; Hatching rate (%), Replicate 2 ([2]; listed as 19-(S, S)): 14.56%; Hatching rate (%), Replicate 3 ([2]; listed as 19-(S, S)): 15.38%; Hatching rate (%) (eggs of Thrips; [3]): 14.4%; Hatching rate (%) (eggs of Thrips; [4]): 13.89%; Hatching rate (%) (eggs of Thrips; [5]): 11.46%; Number of hatched larvae 5 days after insecticide delivery (eggs of Thrips; [3]): 18; Number of hatched larvae 5 days after insecticide delivery (eggs of Thrips; [4]): 15; Number of hatched larvae 5 days after insecticide delivery (eggs of Thrips; [5]): 11; inhibitory rate against Magnaporthe grisea (in words) (Magnaporthe grisea): strong inhibitory rate; Average antifungal rate (%) (Magnaporthe grisea): 84.69%; Antifungal rate of Magnaporthe grisea (%), Replicate 1 (Magnaporthe grisea): 86.52%; Antifungal rate of Magnaporthe grisea (%), Replicate 2 (Magnaporthe grisea): 83.17%; Antifungal rate of Magnaporthe grisea (%), Replicate 3 (Magnaporthe grisea): 84.38%

**Q.** With `CCC(COS(=O)OCCF)Oc1ccc(Cl)cc1Cl` [19′-(R,R)] as the compound, how does the “inhibitory activity on the hatching of eggs of Aleyrodidae (in words)” value (eggs of Aleyrodidae) read?
**A.** The value was “strong inhibitory activities”.

**Q.** And the “Hatching rate (%), Replicate 1” value (eggs of Aleyrodidae)?
**A.** The value was 0.00%.

**Q.** And the “Hatching rate (%), Replicate 2” value (eggs of Aleyrodidae)?
**A.** Its value is 0.00%.

**Q.** What about the “Hatching rate (%), Replicate 3” value (eggs of Aleyrodidae) of the same compound?
**A.** Its value is 0.00%.

**Q.** What about the “Number of hatched larvae 5 days after insecticide delivery, Replicate 1” value (eggs of Aleyrodidae) of the same compound?
**A.** Its value is 0.

**Q.** What about the “Number of hatched larvae 5 days after insecticide delivery, Replicate 2” value (eggs of Aleyrodidae) of the same compound?
**A.** The value was 0.

**Q.** What about the “Number of hatched larvae 5 days after insecticide delivery, Replicate 3” value (eggs of Aleyrodidae) of the same compound?
**A.** The value was 0.

**Q.** And the “inhibitory activity on the hatching of eggs of Spodoptera litura (in words)” value [1]?
**A.** The value was “good inhibitory activities”.

**Q.** And the “Hatching rate (%), Replicate 1” value ([1]; listed as 19′-(R, R))?
**A.** Its value is 17.54%.

**Q.** What about the “Hatching rate (%), Replicate 2” value ([1]; listed as 19′-(R, R)) of the same compound?
**A.** The value was 16.95%.

**Q.** What about the “Hatching rate (%), Replicate 3” value ([1]; listed as 19′-(R, R)) of the same compound?
**A.** Its value is 19.12%.

**Q.** What about the “Number of unhatched larvae 4 days after insecticide delivery, Replicate 1” value ([1]; listed as 19′-(R, R)) of the same compound?
**A.** Its value is 47.

**Q.** And the “Number of unhatched larvae 4 days after insecticide delivery, Replicate 2” value ([1]; listed as 19′-(R, R))?
**A.** Its value is 49.

**Q.** And the “Number of unhatched larvae 4 days after insecticide delivery, Replicate 3” value ([1]; listed as 19′-(R, R))?
**A.** Its value is 55.

**Q.** And the “inhibitory activity on the hatching of eggs of Harmonia axyridis (in words)” value [2]?
**A.** Its value is “strong inhibitory activities”.

**Q.** And the “Number of hatched larvae 4 days after insecticide delivery, Replicate 1” value ([2]; listed as 19′-(R, R))?
**A.** The value was 0.

**Q.** And the “Number of hatched larvae 4 days after insecticide delivery, Replicate 2” value ([2]; listed as 19′-(R, R))?
**A.** The value was 0.

**Q.** What about the “Number of hatched larvae 4 days after insecticide delivery, Replicate 3” value ([2]; listed as 19′-(R, R)) of the same compound?
**A.** The value was 0.

**Q.** What about the “Hatching rate (%), Replicate 1” value ([2]; listed as 19′-(R, R)) of the same compound?
**A.** Its value is 0.00%.

**Q.** What about the “Hatching rate (%), Replicate 2” value ([2]; listed as 19′-(R, R)) of the same compound?
**A.** Its value is 0.00%.

**Q.** What about the “Hatching rate (%), Replicate 3” value ([2]; listed as 19′-(R, R)) of the same compound?
**A.** Its value is 0.00%.

**Q.** And the “inhibitory activity on the hatching of eggs of Thrips (in words)” value (eggs of Thrips)?
**A.** The value was “strong inhibitory activities”.

**Q.** And the “Hatching rate (%)” value (eggs of Thrips; [6])?
**A.** Its value is 0.00%.

**Q.** What about the “Hatching rate (%)” value (eggs of Thrips; [7]) of the same compound?
**A.** The value was 0.00%.

**Q.** What about the “Hatching rate (%)” value (eggs of Thrips; Replicate 3) of the same compound?
**A.** Its value is 0.00%.

**Q.** What about the “Number of hatched larvae 5 days after insecticide delivery” value (eggs of Thrips; [6]) of the same compound?
**A.** The value was 0.

**Q.** What about the “Number of hatched larvae 5 days after insecticide delivery” value (eggs of Thrips; [7]) of the same compound?
**A.** The value was 0.

**Q.** And the “Number of hatched larvae 5 days after insecticide delivery” value (eggs of Thrips; Replicate 3)?
**A.** The value was 0.

**Q.** What about the “inhibitory rate against Magnaporthe grisea (in words)” value (Magnaporthe grisea) of the same compound?
**A.** The value was “strong inhibitory rate”.

**Q.** What about the “Antifungal rate of Magnaporthe grisea (%), Replicate 1” value (Magnaporthe grisea) of the same compound?
**A.** Its value is 96.97%.

**Q.** What about the “Antifungal rate of Magnaporthe grisea (%), Replicate 2” value (Magnaporthe grisea) of the same compound?
**A.** The value was 97.35%.

**Q.** What about the “Antifungal rate of Magnaporthe grisea (%), Replicate 3” value (Magnaporthe grisea) of the same compound?
**A.** Its value is 97.26%.

**Q.** What does the source list for `CC[C@H](COS(=O)OCCF)Oc1ccc(Cl)cc1Cl` (stereo partly drawn) [19′-(R,S)]?
**A.** Hatching rate (%), Replicate 1 (eggs of Aleyrodidae): 10.32%; Hatching rate (%), Replicate 2 (eggs of Aleyrodidae): 9.40%; Hatching rate (%), Replicate 3 (eggs of Aleyrodidae): 11.49%; Number of hatched larvae 5 days after insecticide delivery, Replicate 1 (eggs of Aleyrodidae): 13; Number of hatched larvae 5 days after insecticide delivery, Replicate 2 (eggs of Aleyrodidae): 11; Number of hatched larvae 5 days after insecticide delivery, Replicate 3 (eggs of Aleyrodidae): 10; Hatching rate (%), Replicate 1 [1]: 51.67%; Hatching rate (%), Replicate 2 [1]: 50.77%; Hatching rate (%), Replicate 3 [1]: 50.00%; Number of unhatched larvae 4 days after insecticide delivery, Replicate 1 [1]: 30; Number of unhatched larvae 4 days after insecticide delivery, Replicate 2 [1]: 32; Number of unhatched larvae 4 days after insecticide delivery, Replicate 3 [1]: 27; Number of hatched larvae 4 days after insecticide delivery, Replicate 1 [2]: 11; Number of hatched larvae 4 days after insecticide delivery, Replicate 2 [2]: 10; Number of hatched larvae 4 days after insecticide delivery, Replicate 3 [2]: 9; Hatching rate (%), Replicate 1 [2]: 10.28%; Hatching rate (%), Replicate 2 [2]: 10.53%; Hatching rate (%), Replicate 3 [2]: 9.78%; Hatching rate (%) (eggs of Thrips; Replicate 1): 9.02%; Hatching rate (%) (eggs of Thrips; Replicate 2): 9.18%; Hatching rate (%) (eggs of Thrips; Replicate 3): 8.74%; Number of hatched larvae 5 days after insecticide delivery (eggs of Thrips; Replicate 1): 12; Number of hatched larvae 5 days after insecticide delivery (eggs of Thrips; Replicate 2): 9; Number of hatched larvae 5 days after insecticide delivery (eggs of Thrips; Replicate 3): 9; inhibitory rate against Magnaporthe grisea (in words) (Magnaporthe grisea): strong inhibitory rate; Average antifungal rate (%) (Magnaporthe grisea): 97.19% and 86.12%; Antifungal rate of Magnaporthe grisea (%), Replicate 1 (Magnaporthe grisea): 85.69%; Antifungal rate of Magnaporthe grisea (%), Replicate 2 (Magnaporthe grisea): 86.41%; Antifungal rate of Magnaporthe grisea (%), Replicate 3 (Magnaporthe grisea): 86.27%
